Among the data in ChEMBL document CHEMBL1909046, “DrugMatrix in vitro pharmacology data” are IC50 and Ki values, retold here.

In test [1] the target is 5-hydroxytryptamine receptor 4 (Cavia porcellus, UniProt O70528). Type of test: cell membranes, Dunkin-Hartley, Striatum, Membrane. Also: in other assays of this panel Not Active means under 50% inhibition at 10 µM.
The target of test [2] is Tyrosine-protein kinase Lck (Homo sapiens, UniProt P06239). The experiment in a line: DRUGMATRIX: Protein Tyrosine Kinase, LCK enzyme inhibition (substrate: Poly(Glu:Tyr)). It counts as cell-based, Insect cells. The settings on record: Not Active = under 50% inhibition at 10 µM.
Tyrosine-protein kinase Lck, sequence (P06239 whole entry): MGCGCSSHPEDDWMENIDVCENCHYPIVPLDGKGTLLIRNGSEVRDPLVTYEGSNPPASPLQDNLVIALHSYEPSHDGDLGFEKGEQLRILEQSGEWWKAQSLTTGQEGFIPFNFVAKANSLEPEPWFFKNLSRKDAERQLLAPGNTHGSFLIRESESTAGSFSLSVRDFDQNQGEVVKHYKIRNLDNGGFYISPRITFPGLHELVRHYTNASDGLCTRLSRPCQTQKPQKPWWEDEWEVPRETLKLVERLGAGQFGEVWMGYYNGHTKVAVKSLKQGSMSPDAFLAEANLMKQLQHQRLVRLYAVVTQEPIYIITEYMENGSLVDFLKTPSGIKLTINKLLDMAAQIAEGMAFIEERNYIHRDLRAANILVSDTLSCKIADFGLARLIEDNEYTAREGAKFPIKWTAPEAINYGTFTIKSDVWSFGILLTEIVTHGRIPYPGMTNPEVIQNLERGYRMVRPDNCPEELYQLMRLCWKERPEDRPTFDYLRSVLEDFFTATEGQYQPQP
For another test, the target named is D(3) dopamine receptor (Homo sapiens, UniProt P35462). Kind of test: DRUGMATRIX: Dopamine D3 radioligand binding (ligand: [3H] Spiperone). It counts as cell membranes, CHO, Membrane. The note with it: cho.
D(3) dopamine receptor, sequence (P35462 whole entry): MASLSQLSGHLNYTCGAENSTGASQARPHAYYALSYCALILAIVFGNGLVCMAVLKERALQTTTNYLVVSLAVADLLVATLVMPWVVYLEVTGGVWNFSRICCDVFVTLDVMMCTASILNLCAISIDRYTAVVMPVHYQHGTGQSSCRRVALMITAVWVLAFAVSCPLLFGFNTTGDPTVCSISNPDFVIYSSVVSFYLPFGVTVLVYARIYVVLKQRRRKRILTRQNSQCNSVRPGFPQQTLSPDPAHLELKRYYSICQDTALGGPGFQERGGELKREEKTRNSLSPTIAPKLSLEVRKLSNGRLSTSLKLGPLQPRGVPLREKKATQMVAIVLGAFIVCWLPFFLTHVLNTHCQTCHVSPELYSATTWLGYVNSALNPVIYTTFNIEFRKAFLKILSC
For test [3], the target named is Sigma non-opioid intracellular receptor 1 (Homo sapiens, UniProt Q99720). Kind of test: DRUGMATRIX: Sigma1 radioligand binding (ligand: [3H] Haloperidol). Type of test: cell membranes, Jurkat, Membrane. The note with it: jurkat; Not Active = under 50% inhibition at 10 µM.
Sigma non-opioid intracellular receptor 1, sequence (Q99720 whole entry): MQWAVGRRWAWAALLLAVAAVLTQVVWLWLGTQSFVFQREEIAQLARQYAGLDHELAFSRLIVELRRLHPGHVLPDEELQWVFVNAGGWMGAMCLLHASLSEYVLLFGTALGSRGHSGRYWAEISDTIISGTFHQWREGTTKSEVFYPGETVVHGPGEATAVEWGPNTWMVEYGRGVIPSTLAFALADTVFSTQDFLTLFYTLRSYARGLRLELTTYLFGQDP
For test [4], the target named is cGMP-specific 3',5'-cyclic phosphodiesterase (Homo sapiens, UniProt O76074). Kind of test: DRUGMATRIX: Phosphodiesterase PDE5 enzyme inhibition (substrate: [3H]cGMP + cGMP). It counts as tissue-based. The settings on record: platelet; Not Active = under 50% inhibition at 10 µM.
Test [5] in a line: DRUGMATRIX: Nicotinic Acetylcholine radioligand binding (ligand: [125I] Epibatidine). It counts as cell membranes, Membrane. The note with it: imr-32; Not Active = under 50% inhibition at 10 µM.

5-hydroxytryptamine receptor 4, sequence (O70528 whole entry): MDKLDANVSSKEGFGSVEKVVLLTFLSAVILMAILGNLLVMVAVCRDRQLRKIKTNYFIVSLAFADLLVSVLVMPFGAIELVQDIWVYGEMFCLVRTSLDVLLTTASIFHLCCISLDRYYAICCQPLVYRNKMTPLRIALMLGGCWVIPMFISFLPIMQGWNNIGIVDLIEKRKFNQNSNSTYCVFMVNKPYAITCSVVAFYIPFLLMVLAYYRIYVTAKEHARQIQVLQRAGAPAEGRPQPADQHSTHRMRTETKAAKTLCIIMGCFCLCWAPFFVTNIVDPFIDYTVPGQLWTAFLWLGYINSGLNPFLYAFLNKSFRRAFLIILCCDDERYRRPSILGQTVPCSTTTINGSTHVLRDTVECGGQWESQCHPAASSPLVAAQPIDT

One may read the IC50 as the concentration needed to halve the response being measured. The term Ki denotes the dissociation constant of the complex between target and ligand, obtained from inhibition or displacement. Regarding `Nc1ccc(S(=O)(=O)Nc2ncccn2)cc1` [SULFADIAZINE], the concentration for half-maximal inhibition (IC50) result (in test [1]; in test [2] (insect cells); on D(3) dopamine receptor; in test [3]; in test [4]; in test [5]) was “Not Active” throughout. In addition, the Ki result in test [5] is “Not Active”.

For `COc1ncnc(NS(=O)(=O)c2ccc(N)cc2)c1OC` [SULFADOXINE], the IC50 entry (in test [1]; in test [2] (insect cells); at D(3) dopamine receptor; in test [3]; in test [4]; in test [5]) was “Not Active” each time. For the same molecule, the Ki entry in test [5] is on record as “Not Active”.

For the molecule `Nc1ccc(S(=O)(=O)Nc2nccs2)cc1` [SULFATHIAZOLE], the half-inhibitory concentration (IC50) entry (in test [1]; in test [2] (insect cells); at D(3) dopamine receptor; in test [3]; in test [4]; in test [5]) was “Not Active” in each case. The Ki entry in test [5] is given as “Not Active”.

As to `C[C@]12CC[C@H]3[C@@H](CCC4=CC(=O)CC[C@@]43C)[C@@H]1CC[C@@H]2O` [TESTOSTERONE], the IC50 entry (in test [1]; in test [2] (insect cells); on D(3) dopamine receptor; in test [3]; in test [4]; in test [5]) was “Not Active” throughout. Moreover, in test [5], the Ki result is on record as “Not Active”.

Take `CC(C)(C)NC[C@H](O)COc1nsnc1N1CCOCC1` [TIMOLOL]: the IC50 entry (in test [1]; in test [2] (insect cells); at D(3) dopamine receptor; in test [3]; in test [4]; in test [5]) was “Not Active” throughout. In addition, the inhibition constant Ki result in test [5] is “Not Active”.

For the molecule `CCS(=O)(=O)CCn1c([N+](=O)[O-])cnc1C` [TINIDAZOLE], the IC50 result (in test [1]; in test [2] (insect cells); on D(3) dopamine receptor; in test [3]; in test [4]; in test [5]) was “Not Active” throughout. Moreover, in test [5], the inhibitory constant (Ki) entry is given as “Not Active”.

As for `C[C@@H]1C[C@H]2[C@@H]3CCC4=CC(=O)C=C[C@]4(C)C3=CC[C@]2(C)[C@H]1C(=O)CN1CCN(c2cc(N3CCCC3)nc(N3CCCC3)n2)CC1` [TIRILAZAD], the IC50 entry in test [1] was “Not Active”; in test [2] (read-out: IC50), 15800 nM; at D(3) dopamine receptor, “Not Active”; in test [3] it was “Not Active”; in test [4] it was “Not Active”; in test [5], “Not Active”. Besides, the inhibition constant (Ki) entry in test [5] was “Not Active”.

As to `NC[C@H]1O[C@H](O[C@H]2[C@H](O)[C@@H](O[C@H]3O[C@H](CO)[C@@H](O)[C@H](N)[C@H]3O)[C@H](N)C[C@@H]2N)[C@H](N)C[C@@H]1O` [TOBRAMYCIN], the IC50 entry (in test [1]; in test [2] (insect cells); on D(3) dopamine receptor; in test [3]; in test [4]; in test [5]) was “Not Active” in each case. The inhibition constant Ki result in test [5] is reported as “Not Active”.

Consider `O=C(O)C(Cl)(Cl)Cl` [TRICHLOROACETIC ACID], for which the half-inhibitory concentration (IC50) result (in test [1]; in test [2] (insect cells); on D(3) dopamine receptor; in test [3]; in test [4]; in test [5]) was “Not Active” in each case. For the same molecule, the inhibition constant (Ki) entry in test [5] was “Not Active”.

On to `COc1ccc(CN2CCNCC2)c(OC)c1OC` [TRIMETAZIDINE], for which the IC50 result (in test [1]; in test [2] (insect cells); at D(3) dopamine receptor; in test [3]; in test [4]; in test [5]) was “Not Active” each time. In addition, the inhibitory constant (Ki) entry in test [5] is “Not Active”.

As for `CC(=O)O[C@H]1C[C@@H]2CC[C@@H]3[C@H](CC[C@@]4(C)[C@H]3C[C@H]([N+]3(C)CCCCC3)[C@@H]4OC(C)=O)[C@@]2(C)C[C@@H]1N1CCCCC1.[Br-]` [VECURONIUM BROMIDE], the concentration for half-maximal inhibition (IC50) entry (in test [1]; in test [2] (insect cells); on D(3) dopamine receptor; in test [3]; in test [4]; in test [5]) was “Not Active” throughout. For the same molecule, in test [5], the Ki result was “Not Active”.

In the case of `COc1cc(C(=O)NS(=O)(=O)c2ccccc2C)ccc1Cc1cn(C)c2ccc(NC(=O)OC3CCCC3)cc12` [ZAFIRLUKAST], the IC50 result (in test [1]; in test [2] (insect cells); on D(3) dopamine receptor; in test [3]; in test [4]; in test [5]) was “Not Active” each time. Besides, in test [5], the Ki result is listed as “Not Active”.

For `Cc1cn([C@H]2C[C@H](N=[N+]=[N-])[C@@H](CO)O2)c(=O)[nH]c1=O` [ZIDOVUDINE], the half-maximal inhibitory concentration (IC50) result (in test [1]; in test [2] (insect cells); on D(3) dopamine receptor; in test [3]; in test [4]; in test [5]) was “Not Active” in each case. Besides, the Ki result in test [5] is given as “Not Active”.

For the molecule STANNOUS FLUORIDE, the IC50 result (in test [1]; in test [2] (insect cells); at D(3) dopamine receptor; in test [3]; in test [4]; in test [5]) was “Not Active” each time. In addition, the Ki result (in test [1]; in test [2] (insect cells); at D(3) dopamine receptor; in test [3]; in test [4]; in test [5]) was “Not Active” in each case.

As for THIMEROSAL, the IC50 result in test [1] is “Not Active”; in test [2] (insect cells), “Not Active”; at D(3) dopamine receptor (read-out: IC50) it was 85 nM; in test [3] it was “Not Active”; in test [4], “Not Active”; in test [5], “Not Active”. Moreover, the Ki entry in test [1] was “Not Active”; in test [2] (insect cells) it was “Not Active”; at D(3) dopamine receptor (read-out: Ki), 29 nM; in test [3] it was “Not Active”; in test [4] it was “Not Active”; in test [5], “Not Active”.
